Patent publication US8653071B2, “α4β2 neuronal nicotinic acetylcholine receptor ligands” (Suven Life Sciences Limited, priority 2009, dated 2014)

Legend:
Male Wister rats [1] = assay: Object recognition task model; type: in vivo, rat; details: 0.1 mg/kg, p.o.
Description: Object Recognition Task Model
The cognition-enhancing properties of compounds of this invention were estimated using a model of animal cognition: the object recognition task model.
Male Wister rats (230-280 grams) obtained from N. I. N. (National Institute of Nutrition, Hyderabad, India) was used as experimental animals. Four animals were housed in each cage. […] Also the rats were habituated to individual arenas for 1 hour in the absence of any objects.
One group of 12 rats received vehicle (1 mL/Kg) orally and another set of animals received compound of the formula (I) either orally or i.p., before one hour of the familiar (T1) and choice trial (T2).
The experiment was carried out in a 50×50×50 cm open field made up of acrylic. In the familiarization phase, (T1), the rats were placed individually in the open field for 3 minutes, in which two identical objects (plastic bottles, 12.5 cm height×5.5 cm diameter) covered in yellow masking tape alone (a1 and a2) were positioned in two adjacent corners, 10 cm. from the walls. After 24 hours of the (T1) trial for long-term memory test, the same rats were placed in the same arena as they were placed in T1 trial. Choice phase (T2) rats were allowed to explore the open field for 3 minutes in presence of one familiar object (a3) and one novel object (b) (Amber color glass bottle, 12 cm high and 5 cm in diameter). Familiar objects presented similar textures, colors and sizes. During the T1 and T2 trial, explorations of each object (defined as sniffing, licking, chewing or having moving vibrissae whilst directing the nose towards the object at a distance of less than 1 cm) were recorded separately by stopwatch. Sitting on an object was not regarded as exploratory activity, however, it was rarely observed.
T1 is the total time spent exploring the familiar objects (a1+a2).
T2 is the total time spent exploring the familiar object and novel object (a3+b).
The object recognition test was performed as described by Ennaceur, A., Delacour, J., 1988, A new one-trial test for neurobiological studies of memory in rats—Behavioural data, Behav. Brain Res., 31, 47-59.

[2] = biological target: Nicotinic Acetylcholine α4β2 Receptor (UniProt P09483+P12390); assay: Binding assay for human or rat nicotinic acetylcholine α4β2 receptor ([3H]Cytisine displacement); details: [3H]Cytisine 2.5 nM; rat brain frontal cortex or recombinant human receptor in CHO cells (not specified which); read-out: Ki
Description: Binding Assay for Human or Rat Nicotinic Acetylcholine α4β2 Receptor
• Receptor source: Rat brain frontal cortex or recombinant human cDNA expressed in CHO cells • Radioligand: [^3H]Cytisine 15-40 Ci/mmole • Final ligand concentration—[2.5 nM] • Non-specific determinant: Epibatidine—[0.1 μM] • Reference compound: Epibatidine • Positive control: Epibatidine Incubation Conditions:
Increasing concentrations of test compounds or standard were incubated with membrane receptors and radioligand in 120 mM NaCl, 2.5 mM KCl, 1 mM CaCl2, 1 mM MgCl2 and 50 mM TRIS-HCl (pH 7.4) for 60 minutes at room temperature. The reaction was terminated by rapid vacuum filtration onto the glass fiber filters. Radioactivity trapped onto the filters was determined and compared to the control values in order to ascertain any interactions of the test compound(s) with either cloned human or rat receptor binding site.
Literature Reference: Bunnelle W. H., Daanen J. F., Ryther K. B., Schrimpf M. R., Dart M. J., Gelain A., Meyer M. D., Frost J. M., Anderson D. J., Buckley M., Curzon P., Cao Y-J., Puttfarcken P., Searle X., Ji J., Putman C. B., Surowy C., Toma L. and Barlocco D. Structure-Activity Studies and Analgesic Efficacy of N-(3-Pyridinyl)-Bridged Bicyclic Diamines, Exceptionally Potent Agonists at Nicotinic Acetylcholine Receptors. J. Med. Chem. 2007, 50, […].

[3] = Rodent pharmacokinetic study; type: in vivo; details: Wistar, in vivo, Wister rat/Male; for AUC(0-t) / Cmax / Tmax / half-life: 5 mg/kg
Description: Rodent Pharmacokinetic Study
Three to five animals were housed in each cage. Animals were kept fasted over night and maintained on a 12 hours light/dark cycle. Three rats were dosed NCE orally (15 or 5 mg/kg) and intravenously (5 mg/kg) on day 0 and day 2
At each time point blood was collected by jugular vein. Plasma was stored frozen at −20° C. until analysis. The concentrations of the NCE compound in plasma were determined using LC-MS/MS method. Schedule time points: Pre dose 0.25, 0.5, 1, 1.5, 2, 3, 4, 6, 8, 10, 12 and 24 hours after dosing (n=3).
Pharmacokinetic parameters Cmax, Tmax, AUCt, T1/2 and Bioavailability were calculated by non-compartmental model using software WinNonlin version 5.0.1.

Male Wister rats [4] = assay: Reversal of formalin induced nociception; type: in vivo; details: p.o.; rat
Description: Reversal of Formalin Induced Nociception
The anti-nociceptive properties of compounds of this invention were evaluated using a model of pain: the Formalin Induced Nociception model. Male Wister rats (230-280 grams) obtained from N. I. N. (National Institute of Nutrition, Hyderabad, India) was used as experimental animals.
Rats were habituated for 20 minutes in the arena before the experiment was started. Duration of licks, bites and flinches were noted from 0-10 minutes and 20-35 minutes after administration of formalin, subplantar into the right hind paw at concentrations of 5% v/v. 50 μL of water for injection was injected into the right hind paw of the rats of the sham group. Compounds of this invention were administered orally prior to formalin administration.

Male Sprague Dawley rats = assay: DRL-72s model of animal depression; type: in vivo; details: p.o.; rat
Description: The antidepressant properties of compounds of this invention were evaluated using a model of animal depression: the DRL-72s model. Male Sprague Dawley rats were used as experimental animals. Rats are trained to lever press for a 4″ access to 0.025 ml of water for each correct response during daily 60 minute sessions. All testing takes place on weekdays only. At the beginning of each session, the house light is illuminated and remains lit until the session ends. No other stimuli are presented during testing. After successful lever press training, rats are then required to respond under a DRL-24 second schedule, where only lever presses that are separated by 24 seconds are reinforced. Upon stable responding on a DRL-24 second schedule (5-10 sessions), rats are trained on a DRL-72 second schedule until responding stabilizes at approximately 15% efficiency (approx 25-35 sessions). Specifically, rats receive a reinforcer for each response that is emitted at least 72 seconds after the previous response (IRT). […] Efficiency is recorded as number of reinforced responses÷total number of responses. After stable baseline responding is achieved, defined as responding for 4 consecutive sessions with no more than 10% variability, animals begin drug testing. Animals receive drug no more than 1× per week.

in vivo = details: male, Wistar, rat, po, 5 mg/kg
Description: Rodent Brain Penetration Study
Three animals were housed in each cage. Animals were given water and food ad libitum throughout the experiment, and maintained on a 12 hours light/dark cycle.
NCE compound was dissolved in water and administered orally. At Tmax (0.5, 1.0 and 2.0) animals were sacrificed to collect the plasma and brain tissue and were homogenized. Plasma and Brain was stored frozen at −20° C. until analysis. The concentrations of the NCE compound in plasma and Brain were determined using LC-MS/MS method.
The NCE compounds were quantified in plasma and brain homogenate by validated LC-MS/MS method using solid phase extraction technique. NCE compounds were quantified in the calibration range of 1-500 ng/mL in plasma and brain homogenate. Study samples were analyzed using calibration samples in the batch and quality control samples spread across the batch. Extents of brain-blood ratio were calculated (Cb/Cp).

With `NCC1CC2CC2N1c1cncc(Cl)c1.O=C(O)/C=C/C(=O)O` (stereo not shown) [Example 13, [2-(5-Chloropyridin-3-yl)-2-aza-bicyclo[3.1.0]hex-3-yl]methylamine fumarate] the Inference (Male Wister rats [1]) was “Active”, the “Exploration time mean ± S.E.M, Familiar object” value (Male Wister rats [1]; choice trial) was 7.32 ± 1.04 s and the “Exploration time mean ± S.E.M, Novel object” value (Male Wister rats [1]; choice trial) was 22.77 ± 2.12 s. It also gave a Ki [2] of 3.5 nM, a bioavailability ([3]; 5 mg/kg Per-Oral vs 5 mg/kg Intravenous) of 89 ± 18% and an AUC(0-t) ([3]; Intravenous) of 1760 ± 228 ng·h/mL. The Cmax ([3]; Intravenous) was 836 ± 239 ng/mL, the Tmax ([3]; Intravenous) was 4.8 min and the half-life ([3]; Intravenous) was 85.8 ± 6.6 min. It also gave an AUC(0-t) ([3]; Per-Oral) of 1540 ± 165 ng·h/mL, a Cmax ([3]; Per-Oral) of 753 ± 277 ng/mL and a Tmax ([3]; Per-Oral) of 22.8 ± 8.4 min. The half-life ([3]; Per-Oral) was 105 ± 24 min, the “Dose (reversal of formalin induced nociception)” value (Male Wister rats [4]) was “≧30 mg/kg, p.o” and the “Dose (DRL-72s)” value (Male Sprague Dawley rats) was “≧10 mg/kg, p.o”. For the same compound, the Kp (in vivo) was 10.8 ± 1.29.
